Data on three compounds can be found in ChEMBL document CHEMBL1201862, “PubChem BioAssay data set” (2004).

A word on the IC50: it is the concentration that inhibits the measured activity by half.

Active and inactive are the calls of the source. Cut-off read from the data, not from the text of the source: actives have a measured IC50 and inactives only a lower limit.

Envelope glycoprotein gp160, sequence (Q6QLK5 whole entry, the tested form may be a part): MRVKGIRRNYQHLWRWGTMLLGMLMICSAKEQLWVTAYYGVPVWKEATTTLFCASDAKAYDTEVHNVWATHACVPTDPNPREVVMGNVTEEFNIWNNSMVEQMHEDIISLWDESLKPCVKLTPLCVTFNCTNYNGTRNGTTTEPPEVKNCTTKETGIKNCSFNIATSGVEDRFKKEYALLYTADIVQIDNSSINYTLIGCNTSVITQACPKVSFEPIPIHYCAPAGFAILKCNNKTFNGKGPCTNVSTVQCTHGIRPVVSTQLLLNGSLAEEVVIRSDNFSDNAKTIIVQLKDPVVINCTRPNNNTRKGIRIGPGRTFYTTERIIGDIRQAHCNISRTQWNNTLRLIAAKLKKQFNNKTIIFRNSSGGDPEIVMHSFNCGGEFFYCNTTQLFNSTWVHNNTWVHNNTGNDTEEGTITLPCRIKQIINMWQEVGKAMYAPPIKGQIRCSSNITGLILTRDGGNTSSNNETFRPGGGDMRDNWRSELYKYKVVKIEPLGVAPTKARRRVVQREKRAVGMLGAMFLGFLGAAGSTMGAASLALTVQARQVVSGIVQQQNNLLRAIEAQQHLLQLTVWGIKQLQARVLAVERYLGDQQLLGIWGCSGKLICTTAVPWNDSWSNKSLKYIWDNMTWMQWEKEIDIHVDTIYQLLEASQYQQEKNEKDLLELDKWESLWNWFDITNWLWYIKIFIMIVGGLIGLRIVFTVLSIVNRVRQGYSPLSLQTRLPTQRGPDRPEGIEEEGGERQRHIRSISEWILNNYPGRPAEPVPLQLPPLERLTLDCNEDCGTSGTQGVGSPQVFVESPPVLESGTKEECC

The experiment has as its target Envelope glycoprotein gp160 (Human immunodeficiency virus 1, UniProt Q6QLK5). The experiment is described as follows: cell-free HIV fusion peptide-binding blockers – biochemical, uHTS, fluorescence dequenching, […] (AID 1986).
As for `O=c1/c(=C\c2cc([N+](=O)[O-])cc([N+](=O)[O-])c2O)sc2nc3ccccc3n12`, the half-maximal inhibitory concentration (IC50) was 6.01 µM (active). Consider `O=C(CSc1nc2ccccc2c(=O)n1Cc1ccccc1)Nc1ccc(Br)cc1C(=O)O`, for which the half-inhibitory concentration (IC50) is 14.4 µM (active).

`Cc1ccc(F)c(NC(=O)/C(C#N)=C(\O)c2ccc(C(C)(C)C)cc2)c1`: the half-inhibitory concentration (IC50) is 19.6 µM (active).
